In patent publication US9957264B2 (Merck Sharp & Dohme Corp., priority 2013, dated 2018):
pIC50: −log10 of the molar value.

Columns and labels:
[1] = molecular target: JAK1 (recombinant purified GST-tagged catalytic domain) (Homo sapiens (Human), UniProt P23458); test: Jak Biochemical HTRF Assay (JAK1); conditions: [ATP] 31.8 μM
Outline: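 Kinase reaction with biotinylated peptide substrate was started by ATP addition and run 120 min at room temperature, then quenched with EDTA stop buffer containing streptavidin-Dylight 650 and Eu-pY20 antibody. HTRF read 60 min later (665/615 nm ratio); percent inhibition vs log concentration fit to 4-parameter curve for IC50.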

[2] = molecular target: JAK2 (recombinant purified GST-tagged catalytic domain) (Homo sapiens (Human), UniProt O60674); test: Jak Biochemical HTRF Assay (JAK2); conditions: [ATP] 8.5 μM
Chain of JAK2 (recombinant purified GST-tagged catalytic domain) (O60674 849-1124): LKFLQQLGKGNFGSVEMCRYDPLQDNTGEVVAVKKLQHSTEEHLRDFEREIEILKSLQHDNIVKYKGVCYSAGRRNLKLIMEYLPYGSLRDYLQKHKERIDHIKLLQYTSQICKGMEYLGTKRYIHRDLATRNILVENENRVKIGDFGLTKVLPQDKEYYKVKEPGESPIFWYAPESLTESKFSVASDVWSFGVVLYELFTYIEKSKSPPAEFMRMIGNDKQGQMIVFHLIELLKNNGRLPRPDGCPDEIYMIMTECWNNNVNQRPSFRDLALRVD

Chain of JAK1 (recombinant purified GST-tagged catalytic domain) (P23458 875-1153): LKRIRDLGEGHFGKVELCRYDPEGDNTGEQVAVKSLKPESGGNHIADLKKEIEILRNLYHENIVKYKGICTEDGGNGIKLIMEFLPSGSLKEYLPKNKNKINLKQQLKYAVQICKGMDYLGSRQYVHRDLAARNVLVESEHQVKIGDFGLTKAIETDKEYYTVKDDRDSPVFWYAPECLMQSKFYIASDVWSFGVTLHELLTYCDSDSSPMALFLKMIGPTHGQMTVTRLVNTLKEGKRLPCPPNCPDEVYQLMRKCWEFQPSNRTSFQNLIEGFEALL

Work on `COCC(=O)N1CCC(CC#N)(n2nc(Nc3ccc(S(=O)(=O)N(C)C)cc3)c3c(=O)[nH]ccc32)CC1` [Example 9-3, 4-({1-[4-(cyanomethyl)-1-(methoxyacetyl)piperidin-4-yl]-4-oxo-4,5-dihydro-1H-pyrazolo[4,3-c]pyridin-3-yl}amino)-N,N-dimethylbenzenesulfonamide] yielded a pIC50 [1] of 9.62 and a pIC50 [2] of 8.79.

Work on `CN(C)CC(=O)N1CCC(CC#N)(n2nc(Nc3ccc(S(=O)(=O)N(C)C)cc3)c3c(=O)[nH]ccc32)CC1` [Example 9-4, 4-({1-[4-(cyanomethyl)-1-(N,N-dimethylglycyl)piperidin-4-yl]-4-oxo-4,5-dihydro-1H-pyrazolo[4,3-c]pyridin-3-yl}amino)-N,N-dimethylbenzenesulfonamide] yielded a pIC50 [1] of 9.19 and a pIC50 [2] of 8.29.

`CN(C)S(=O)(=O)c1ccc(Nc2nn(C3(CC#N)CCN(C(=O)C(C)(C)C)CC3)c3cc[nH]c(=O)c23)cc1` [Example 9-5, 4-({1-[4-(cyanomethyl)-1-(2,2-dimethylpropanoyl)piperidin-4-yl]-4-oxo-4,5-dihydro-1H-pyrazolo[4,3-c]pyridin-3-yl}amino)-N,N-dimethylbenzenesulfonamide] gave a pIC50 [1] of 9.26 and a pIC50 [2] of 8.52.

`CN(C)S(=O)(=O)c1ccc(Nc2nn(C3(CC#N)CCN(C(=O)C4CC4)CC3)c3cc[nH]c(=O)c23)cc1` [Example 9-6, 4-({1-[4-(cyanomethyl)-1-(cyclopropylcarbonyl)piperidin-4-yl]-4-oxo-4,5-dihydro-1H-pyrazolo[4,3-c]pyridin-3-yl}amino)-N,N-dimethylbenzenesulfonamide] gave a pIC50 [1] of 10.10 and a pIC50 [2] of 9.54.

Work on `CN(C)S(=O)(=O)c1ccc(Nc2nn(C3(CC#N)CCN(C(=O)C4CC(F)(F)C4)CC3)c3cc[nH]c(=O)c23)cc1` [Example 9-7, 4-[(1-{4-(cyanomethyl)-1-[(3,3-difluorocyclobutyl)carbonyl]piperidin-4-yl}-4-oxo-4,5-dihydro-1H-pyrazolo[4,3-c]pyridin-3-yl)amino]-N,N-dimethylbenzenesulfonamide] yielded a pIC50 [1] of 10.05 and a pIC50 [2] of 9.29.

In the case of `CN(C)S(=O)(=O)c1ccc(Nc2nn(C3(CC#N)CCN(C(=O)C4CCCCC4)CC3)c3cc[nH]c(=O)c23)cc1` [Example 9-8, 4-({1-[4-(cyanomethyl)-1-(cyclohexylcarbonyl)piperidin-4-yl]-4-oxo-4,5-dihydro-1H-pyrazolo[4,3-c]pyridin-3-yl}amino)-N,N-dimethylbenzenesulfonamide], the pIC50 [1] was 9.80 and the pIC50 [2] was 8.92.

Compound `CN(C)S(=O)(=O)c1ccc(Nc2nn(C3(CC#N)CCN(C(=O)C45CC6C[C@H](C4)C[C@@H](C6)C5)CC3)c3cc[nH]c(=O)c23)cc1` [Example 9-9, 4-[(1-{4-(cyanomethyl)-1-[(3S,5S,7S)-tricyclo[3.3.1.1^3,7]dec-1-ylcarbonyl]piperidin-4-yl}-4-oxo-4,5-dihydro-1H-pyrazolo[4,3-c]pyridin-3-yl)amino]-N,N-dimethylbenzenesulfonamide] has a pIC50 [1] of 8.40 and a pIC50 [2] of 7.41.

Compound `CN(C)S(=O)(=O)c1ccc(Nc2nn(C3(CC#N)CCN(C(=O)CC4CC4)CC3)c3cc[nH]c(=O)c23)cc1` [Example 9-10, 4-({1-[4-(cyanomethyl)-1-(cyclopropylacetyl)piperidin-4-yl]-4-oxo-4,5-dihydro-1H-pyrazolo[4,3-c]pyridin-3-yl}amino)-N,N-dimethylbenzenesulfonamide] has a pIC50 [1] of 9.77 and a pIC50 [2] of 8.97.

For `CN(C)S(=O)(=O)c1ccc(Nc2nn(C3(CC#N)CCN(C(=O)CCC4CC4)CC3)c3cc[nH]c(=O)c23)cc1` [Example 9-11, 4-({1-[4-(cyanomethyl)-1-(3-cyclopropylpropanoyl)piperidin-4-yl]-4-oxo-4,5-dihydro-1H-pyrazolo[4,3-c]pyridin-3-yl}amino)-N,N-dimethylbenzenesulfonamide], the pIC50 [1] was 9.85 and the pIC50 [2] was 8.94.

`CN(C)S(=O)(=O)c1ccc(Nc2nn(C3(CC#N)CCN(C(=O)c4ccccc4)CC3)c3cc[nH]c(=O)c23)cc1` [Example 9-12, 4-({1-[4-(cyanomethyl)-1-(phenylcarbonyl)piperidin-4-yl]-4-oxo-4,5-dihydro-1H-pyrazolo[4,3-c]pyridin-3-yl}amino)-N,N-dimethylbenzenesulfonamide] was tested, and the pIC50 [1] was 8.77 and the pIC50 [2] was 7.78.

In the case of `CN(C)S(=O)(=O)c1ccc(Nc2nn(C3(CC#N)CCN(C(=O)c4ccc(Cl)cc4)CC3)c3cc[nH]c(=O)c23)cc1` [Example 9-13, 4-[(1-{1-[(4-chlorophenyl)carbonyl]-4-(cyanomethyl)piperidin-4-yl}-4-oxo-4,5-dihydro-1H-pyrazolo[4,3-c]pyridin-3-yl)amino]-N,N-dimethylbenzenesulfonamide], the pIC50 [1] was 8.97 and the pIC50 [2] was 7.92.

For `CN(C)S(=O)(=O)c1ccc(Nc2nn(C3(CC#N)CCN(C(=O)c4cccc(Cl)c4)CC3)c3cc[nH]c(=O)c23)cc1` [Example 9-14, 4-[(1-{1-[(3-chlorophenyl)carbonyl]-4-(cyanomethyl)piperidin-4-yl}-4-oxo-4,5-dihydro-1H-pyrazolo[4,3-c]pyridin-3-yl)amino]-N,N-dimethylbenzenesulfonamide], the pIC50 [1] was 9.64 and the pIC50 [2] was 8.71.

In the case of `CN(C)S(=O)(=O)c1ccc(Nc2nn(C3(CC#N)CCN(C(=O)c4ccccc4Cl)CC3)c3cc[nH]c(=O)c23)cc1` [Example 9-15, 4-[(1-{1-[(2-chlorophenyl)carbonyl]-4-(cyanomethyl)piperidin-4-yl}-4-oxo-4,5-dihydro-1H-pyrazolo[4,3-c]pyridin-3-yl)amino]-N,N-dimethylbenzenesulfonamide], the pIC50 [1] was 9.09 and the pIC50 [2] was 8.08.

Work on `CN(C)S(=O)(=O)c1ccc(Nc2nn(C3(CC#N)CCN(C(=O)CCc4ccccc4)CC3)c3cc[nH]c(=O)c23)cc1` [Example 9-17, 4-({1-[4-(cyanomethyl)-1-(3-phenylpropanoyl)piperidin-4-yl]-4-oxo-4,5-dihydro-1H-pyrazolo[4,3-c]pyridin-3-yl}amino)-N,N-dimethylbenzenesulfonamide] yielded a pIC50 [1] of 9.82 and a pIC50 [2] of 9.15.

`CN(C)S(=O)(=O)c1ccc(Nc2nn(C3(CC#N)CCN(C(=O)C4Cc5ccccc5C4)CC3)c3cc[nH]c(=O)c23)cc1` [Example 9-18, 4-({1-[4-(cyanomethyl)-1-(2,3-dihydro-1H-inden-2-ylcarbonyl)piperidin-4-yl]-4-oxo-4,5-dihydro-1H-pyrazolo[4,3-c]pyridin-3-yl}amino)-N,N-dimethylbenzenesulfonamide] gave a pIC50 [1] of 9.85 and a pIC50 [2] of 9.41.

For `CN(C)S(=O)(=O)c1ccc(Nc2nn(C3(CC#N)CCN(C(=O)CN4CCCC4=O)CC3)c3cc[nH]c(=O)c23)cc1` [Example 9-19, 4-[(1-{4-(cyanomethyl)-1-[(2-oxopyrrolidin-1-yl)acetyl]piperidin-4-yl}-4-oxo-4,5-dihydro-1H-pyrazolo[4,3-c]pyridin-3-yl)amino]-N,N-dimethylbenzenesulfonamide], the pIC50 [1] was 9.59 and the pIC50 [2] was 8.50.

In the case of `CN(C)S(=O)(=O)c1ccc(Nc2nn(C3(CC#N)CCN(C(=O)C4CCOCC4)CC3)c3cc[nH]c(=O)c23)cc1` [Example 9-20, 4-({1-[4-(cyanomethyl)-1-(tetrahydro-2H-pyran-4-ylcarbonyl)piperidin-4-yl]-4-oxo-4,5-dihydro-1H-pyrazolo[4,3-c]pyridin-3-yl}amino)-N,N-dimethylbenzenesulfonamide], the pIC50 [1] was 9.51 and the pIC50 [2] was 8.61.
